Measured values published in PubChem BioAssay (NCI).
“And” between values parts separate entries of the source, which are not always exact repeats. Equal values may be shown once.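 Growth conditions: 96-well plates. Treatment: test compound, 48 hours, 5 concentrations. Analysis: linear interpolation between bracketing concentrations; unreached endpoints set to highest concentration. At the GI50, growth is halved. TGI is the concentration that stops growth completely.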

Experiments:
Test in all cases: DTP human tumour cell line panel, 48 h
HOP-92 NSCLC = system: HOP-92 NSCLC
UACC-257 melanoma = system: UACC-257 melanoma
TK-10 renal = system: TK-10 renal
SK-MEL-2 melanoma = system: SK-MEL-2 melanoma
SF-295 CNS = system: SF-295 CNS
MDA-MB-435 = system: MDA-MB-435
SN12C renal = system: SN12C renal
CCRF-CEM leukemia = system: CCRF-CEM leukemia

Structure (SMILES) | TGI (HOP-92 NSCLC) | TGI (UACC-257 melanoma) | TGI (TK-10 renal) | TGI (SK-MEL-2 melanoma) | TGI (SF-295 CNS) | TGI (MDA-MB-435) | TGI (SN12C renal) | GI50 (HOP-92 NSCLC) | GI50 (UACC-257 melanoma) | GI50 (TK-10 renal) | GI50 (CCRF-CEM leukemia) | TGI (CCRF-CEM leukemia) | GI50 (SK-MEL-2 melanoma) | GI50 (SF-295 CNS) | GI50 (MDA-MB-435) | GI50 (SN12C renal)
C[C@]12CCC3=NCCN3C1=CC[C@@H]1[C@@H]2CC[C@@]2(C)[C@H]1CC[C@]2(C)O | > 100 µM | 73.1 µM | > 100 µM | > 100 µM | 42.6 µM | > 100 µM | > 100 µM | – | – | – | – | – | – | – | – | –
C#Cc1cccc(NC(=O)C2CCCN(C(=O)CCl)C2)c1 (centres undefined) | > 82.5 µM | > 82.5 µM | > 82.5 µM | > 82.5 µM | > 82.5 µM | > 82.5 µM | > 82.5 µM | > 82.5 µM | > 82.5 µM | > 82.5 µM | 21.7 µM | 64.4 µM | > 82.5 µM | > 82.5 µM | 69.8 µM | 19.7 µM
O=C(OC[C@@H]1CO1)c1cccc2c(=O)c3ccccc3[nH]c12 | 5.02 µM | 4.31 µM | – | 0.595 µM | 2.5 µM | 1.24 µM | 1.41 µM | 0.444 µM | 0.517 µM | 0.646 µM | 0.0896 µM | > 100 µM | 0.251 µM | 0.432 µM | 0.281 µM | 0.196 µM
OCCCCC#Cc1ccccc1C#Cc1ccc(C(F)(F)F)cc1 | 34.9 µM | 28.2 µM | 25.3 µM | 33.9 µM | 34.5 µM | 31.8 µM | 29.6 µM | 18 µM | 14.9 µM | 11.9 µM | 19.6 µM | 44.1 µM | 16 µM | 19.1 µM | 16.3 µM | 15.8 µM
c1cncc(C2ONC3=NCCN32)c1 (centres undefined) | – | > 100 µM | 70.6 µM | > 100 µM | > 100 µM | > 100 µM | 31.7 µM | – | > 100 µM | 10.9 µM | 21 µM | 56.6 µM | 68.8 µM | 33.3 µM | 50.8 µM | 14.6 µM
CN(C)c1ccc(C2CC(C)(O)Oc3cc4c(cc32)OCO4)cc1 (centres undefined) | > 100 µM | > 100 µM | > 100 µM | 63.8 µM | > 100 µM | 74.1 µM | > 100 µM | – | – | – | – | > 100 µM | – | – | – | –
COc1cc2cc3c(c(O)c2c(O)c1-c1c(OC)cc2cc4c(c(O)c2c1O)C(=O)O[C@H](C)C4)C(=O)O[C@H](C)C3 | 74.3 µM | 48.8 µM | > 100 µM | > 100 µM | 78.1 µM | 33.8 µM | 38.8 µM | 31.3 µM | 22.9 µM | 60.3 µM | 25.3 µM | 67.7 µM | 50.7 µM | 24.5 µM | 17.8 µM | 18.3 µM
C=C(Cl)[C@@](Cl)(CBr)CC[C@@H](Br)C(C)(C)Cl | 0.807 µM | 6.2 µM and 1.83 µM | 0.545 µM and 0.679 µM | 2.72 µM and 1.85 µM | 2.46 µM and 0.452 µM | 39.5 µM and 5.5 µM | 17.3 µM | – | – | 0.228 µM | 20.3 µM | > 100 µM and 53.6 µM | 0.552 µM | – | 2.5 µM | –
COc1ccc(-c2cc(-c3ccccc3)nc(NCCNc3ccnc4cc(Cl)ccc34)n2)cc1 | 2.57 µM | 3.93 µM | 3.44 µM | 3.43 µM | 3.49 µM | 3.01 µM | 3.3 µM | 1.17 µM | 1.92 µM | 1.82 µM | 0.306 µM | 1.21 µM | 1.84 µM | 1.8 µM | 1.47 µM | 1.61 µM
O=c1[nH]c2ccc([N+](=O)[O-])c(Cl)c2c2ccccc12 | – | 15.6 µM | 11.3 µM | 24.7 µM | 9.18 µM | 7.6 µM | 14.4 µM | – | – | – | – | 24.1 µM | – | – | – | –
COC(=O)[C@]1(C)CCC[C@]2(C)[C@@H]1CCC13C[C@@H](C=CO1)[C@@H](C)CC32O (some centres undefined) | > 100 µM | > 100 µM | – | > 100 µM | 88.7 µM | > 100 µM | > 100 µM | 22 µM | 70 µM | – | – | – | > 100 µM | 27.5 µM | 23.9 µM | > 100 µM
CCOc1ccc(Nc2nc(-c3c(C)nc4ncccn34)cs2)cc1 | 13.4 µM | 21.3 µM | 43 µM | 21.7 µM | 15.3 µM | – | 28.2 µM | 0.0362 µM | 6.77 µM | 12.8 µM | 0.0291 µM | 17.3 µM | 0.0389 µM | < 0.01 µM | – | 0.0769 µM
N#CCC1(n2cc(-c3ncnc4[nH]ccc34)cn2)CN(C2CCN(C(=O)c3ccnc(C(F)(F)F)c3F)CC2)C1 | > 100 µM | > 100 µM | > 100 µM | > 100 µM | > 100 µM | > 100 µM | > 100 µM | 20.7 µM | > 100 µM | 55.3 µM | 54.5 µM | > 100 µM | > 100 µM | 53.9 µM | 92.1 µM | 69.8 µM
NC(N)=N/N=C(/c1ccccc1)c1ccccc1F | > 81.5 µM | 38.1 µM | 47.2 µM | 36.7 µM | 14.3 µM | 3.81 µM | 31.3 µM | 18.3 µM | 15.8 µM | 9.86 µM | 5.08 µM | > 100 µM | 12.2 µM | 2.43 µM | 0.347 µM | 5.98 µM
Cc1nc2c(Br)cc(Br)cc2c(=O)n1-c1ccccc1NC1OCC(O)C(O)C1O (centres undefined) | 82.1 µM and > 100 µM | > 100 µM and 99.3 µM | > 100 µM | > 100 µM | > 100 µM and 65.3 µM | > 100 µM | > 100 µM | – | – | – | – | 56.7 µM and > 56.5 µM | – | 43.1 µM and 14 µM | – | 46.8 µM and 21.9 µM
O=C(c1ccccc1)C(Br)C(Br)c1ccccc1 (centres undefined) | 6 µM | 8.04 µM | 3.01 µM | 24.6 µM | 27.7 µM | 11.2 µM | 22.6 µM | 2.53 µM | 3.2 µM | 1.59 µM | – | – | 10.7 µM | 11.9 µM | 2.91 µM | 10.4 µM
Clc1ccc2c(NCCCN3CCN(c4nc(N5CCOCC5)nc5ccccc45)CC3)ccnc2c1 | – | 3.42 µM | 4.56 µM | 3.49 µM | – | 3.36 µM | – | – | 1.77 µM | 2.04 µM | 1.8 µM | 5.73 µM | 1.87 µM | – | 1.81 µM | –
